Results on five compounds are retold here after patent publication US20230265151A1, “GIP/GLP1 CO-AGONIST COMPOUNDS” (priority 2020, published 2023).

As usually defined, the EC50 is the midpoint of the concentration-response curve. One may read the Emax as the size of the effect at its maximum, as opposed to the concentration needed.

Like-named read-outs stand apart in the source and are kept apart here. Bounds are passed on as bounds.

The target in one test is T1, hGCGR (Homo sapiens, UniProt P47871).
T1 construct: expressed in transfected cells
Description: Functional cAMP formation (HTRF) in HEK-293 clonal cells expressing hGCGR, 0.1% bovine casein, without or with 1.0% human serum albumin. The following applies: cAMP, incubated at 37° C., 0.1% bovine casein (no human serum albumin), geometric mean. In kind it is cell-based. In a few lines:
(§1)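 Readings of the HTRF 665/620 nm ratio, which falls as cAMP rises, were converted to nM cAMP using a standard curve after 30 min peptide exposure at 37° C.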
(Cyclic AMP is a second messenger, typically raised through Gs and lowered through Gi signalling.)

For another test, the target named is T2, hGIPR (Homo sapiens, UniProt P48546).
T2 construct: expressed in transfected cells
T2 sequence (P48546 22-466): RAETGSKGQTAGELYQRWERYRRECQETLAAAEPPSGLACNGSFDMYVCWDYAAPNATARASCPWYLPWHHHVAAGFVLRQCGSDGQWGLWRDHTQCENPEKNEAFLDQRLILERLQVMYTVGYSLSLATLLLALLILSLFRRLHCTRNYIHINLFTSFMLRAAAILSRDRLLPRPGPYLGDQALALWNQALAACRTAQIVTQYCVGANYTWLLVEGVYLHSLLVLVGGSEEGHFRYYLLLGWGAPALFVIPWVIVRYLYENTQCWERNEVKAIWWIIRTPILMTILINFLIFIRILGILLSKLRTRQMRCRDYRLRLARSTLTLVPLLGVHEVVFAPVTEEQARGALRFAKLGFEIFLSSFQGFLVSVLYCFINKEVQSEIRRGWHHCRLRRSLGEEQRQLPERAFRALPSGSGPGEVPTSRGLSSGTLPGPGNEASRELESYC
Description: Functional cAMP formation (HTRF) in HEK-293 clonal cells expressing hGIPR, 0.1% bovine casein, without or with 1.0% human serum albumin. The note with it: for Emax: 37° C., 0.1% bovine casein, arithmetic mean; for EC50: cAMP, incubated at 37° C., 0.1% bovine casein (no human serum albumin), geometric mean. In kind it is cell-based. The gist of the method:
as §1

Setting [1] is: read-out: hGCGR EC50, nM (SEM, n).
Setting [2] is: HEK293, percent of maximal response to GIP(1-42)NH2, read-out: hGIPR Emax, % ± SEM.
[3] abbreviates: read-out: hGIPR EC50, nM (SEM, n).

T1 sequence (P47871 26-477): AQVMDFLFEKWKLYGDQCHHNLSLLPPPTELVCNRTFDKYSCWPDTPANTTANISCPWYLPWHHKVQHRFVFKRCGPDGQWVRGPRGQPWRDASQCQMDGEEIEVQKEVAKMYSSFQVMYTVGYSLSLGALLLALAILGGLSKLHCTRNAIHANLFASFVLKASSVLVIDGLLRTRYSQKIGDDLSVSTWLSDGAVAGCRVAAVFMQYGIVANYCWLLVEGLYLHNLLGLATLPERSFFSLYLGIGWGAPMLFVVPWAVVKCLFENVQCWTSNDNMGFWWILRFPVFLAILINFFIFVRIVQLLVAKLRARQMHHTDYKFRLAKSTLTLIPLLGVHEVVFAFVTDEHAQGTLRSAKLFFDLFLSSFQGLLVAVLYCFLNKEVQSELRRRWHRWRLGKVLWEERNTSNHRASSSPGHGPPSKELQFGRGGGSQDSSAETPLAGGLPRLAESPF

For the compound `CC[C@H](C)[C@H](NC(=O)[C@H](CC(C)C)NC(=O)[C@](C)(Cc1ccc(O)cc1)NC(=O)[C@@H](CCC(=O)O)NC(=O)[C@@H](NC(=O)[C@H](Cc1ccccc1)NC(=O)[C@H](CCC(=O)O)NC(=O)C(C)(C)NC(=O)[C@H](CCC(N)=O)NC(=O)[C@H](C)NC(=O)[C@H](CCCCNC(=O)COCCOCCNC(=O)COCCOCCNC(=O)CC[C@H](NC(=O)CCCc1ccc(C(C)(C)C)cc1)C(=O)O)NC(=O)[C@H](CCCN)NC(=O)[C@H](CC(=O)O)NC(=O)[C@H](CC(C)C)NC(=O)[C@](C)(CC(C)C)NC(=O)[C@@H](NC(=O)C(C)(C)NC(=O)[C@@H](NC(=O)[C@H](CC(=O)O)NC(=O)[C@H](CO)NC(=O)[C@@H](NC(=O)[C@](C)(Cc1ccccc1)NC(=O)[C@@H](NC(=O)CNC(=O)[C@H](CCC(=O)O)NC(=O)C(C)(C)NC(=O)[C@@H](N)Cc1ccc(O)cc1)[C@@H](C)O)[C@@H](C)O)C(C)C)[C@@H](C)CC)[C@@H](C)CC)C(=O)N[C@@H](CCC(=O)O)C(=O)NCC(=O)NCC(=O)N[C@@H](CCCCNC(=O)COCCOCCNC(=O)COCCOCCNC(=O)CC[C@H](NC(=O)CCCc1ccc(C(C)(C)C)cc1)C(=O)O)C(=O)N[C@@H](CO)C(=O)N[C@@H](CO)C(=O)NCC(=O)N[C@@H](C)C(=O)N1CCC[C@H]1C(=O)N1CCC[C@H]1C(=O)N1CCC[C@H]1C(=O)N[C@@H](CO)C(N)=O` [Example 178], the results for the concentration giving a half-maximal response (EC50) at hGCGR (setting [1]) and at hGIPR (setting [3]) were more than 9950 nM and 0.11 nM, respectively. Also, the Emax at hGIPR (setting [2]) was 105%.

Consider `CC[C@H](C)[C@H](NC(=O)[C@H](CCCN)NC(=O)[C@H](CC(=O)O)NC(=O)[C@H](CC(C)C)NC(=O)[C@](C)(CC(C)C)NC(=O)[C@@H](NC(=O)[C@H](CO)NC(=O)[C@H](CCCCNC(=O)COCCOCCNC(=O)COCCOCCNC(=O)CC[C@H](NC(=O)CCCCCCCCCCCCC(=O)O)C(=O)O)NC(=O)[C@H](CC(=O)O)NC(=O)[C@H](CO)NC(=O)[C@@H](NC(=O)[C@](C)(Cc1ccccc1F)NC(=O)[C@@H](NC(=O)CNC(=O)[C@H](CCC(=O)O)NC(=O)C(C)(C)NC(=O)[C@@H](N)Cc1ccc(O)cc1)[C@@H](C)O)[C@@H](C)O)[C@@H](C)CC)C(=O)N[C@@H](C)C(=O)N[C@@H](CCC(N)=O)C(=O)NC(C)(C)C(=O)N[C@@H](CCCCNC(=O)COCCOCCNC(=O)COCCOCCNC(=O)CC[C@H](NC(=O)CCCCCCCCCCCCC(=O)O)C(=O)O)C(=O)N[C@@](C)(Cc1ccccc1)C(=O)N[C@H](C(=O)N[C@H](CCC(=O)O)C(=O)N[C@@](C)(Cc1ccc(O)cc1)C(=O)N[C@@H](CC(C)C)C(=O)N[C@H](C(=O)N[C@@H](CCC(=O)O)C(=O)NCC(=O)NCC(=O)N1CCC[C@H]1C(=O)N[C@@H](CO)C(=O)N[C@@H](CO)C(=O)NCC(=O)N[C@@H](C)C(=O)N1CCC[C@H]1C(=O)N1CCC[C@H]1C(=O)N1CCC[C@H]1C(=O)N[C@@H](CO)C(N)=O)[C@@H](C)CC)[C@@H](C)CC` [Example 109], for which the EC50 on hGCGR (setting [1]) is more than 9950 nM; on hGIPR (setting [3]), 0.0236 nM. Also, the maximum response (Emax) at hGIPR (setting [2]) worked out at 84.8%.

Turning to `CC[C@H](C)[C@H](NC(=O)[C@H](CCCN)NC(=O)[C@H](CC(=O)O)NC(=O)[C@H](CC(C)C)NC(=O)[C@](C)(CC(C)C)NC(=O)[C@@H](NC(=O)[C@H](CO)NC(=O)[C@H](CCCCNC(=O)COCCOCCNC(=O)COCCOCCNC(=O)CC[C@H](NC(=O)CCCCCCCCCCCCC(=O)O)C(=O)O)NC(=O)[C@H](CC(=O)O)NC(=O)[C@H](CO)NC(=O)[C@@H](NC(=O)[C@](C)(Cc1ccccc1F)NC(=O)[C@@H](NC(=O)CNC(=O)[C@H](CCC(=O)O)NC(=O)C(C)(C)NC(=O)[C@@H](N)Cc1ccc(O)cc1)[C@@H](C)O)[C@@H](C)O)[C@@H](C)CC)C(=O)N[C@@H](C)C(=O)N[C@@H](CCC(N)=O)C(=O)NC(C)(C)C(=O)N[C@@H](CCC(=O)O)C(=O)N[C@@](C)(Cc1ccccc1)C(=O)N[C@H](C(=O)N[C@H](CCC(=O)O)C(=O)N[C@@](C)(Cc1ccc(O)cc1)C(=O)N[C@@H](CC(C)C)C(=O)N[C@H](C(=O)N[C@@H](CCC(=O)O)C(=O)NCC(=O)NCC(=O)N[C@@H](CCCCNC(=O)COCCOCCNC(=O)COCCOCCNC(=O)CC[C@H](NC(=O)CCCCCCCCCCCCC(=O)O)C(=O)O)C(=O)N[C@@H](CO)C(=O)N[C@@H](CO)C(=O)NCC(=O)N[C@@H](C)C(=O)N1CCC[C@H]1C(=O)N1CCC[C@H]1C(=O)N1CCC[C@H]1C(=O)N[C@@H](CO)C(N)=O)[C@@H](C)CC)[C@@H](C)CC` [Example 112], the values for the EC50 at hGCGR (setting [1]) and at hGIPR (setting [3]) were more than 9950 nM and 0.0229 nM, respectively. Also, at hGIPR (setting [2]), the maximum response (Emax) is 93.6%.

Consider `CC[C@H](C)[C@H](NC(=O)[C@H](CC(C)C)NC(=O)[C@](C)(Cc1ccc(O)cc1)NC(=O)[C@H](CCCCNC(=O)[C@@H](N)CCCCNC(=O)[C@@H](N)CCCCNC(=O)CC[C@H](NC(=O)CCCCCCCCCCCCC(=O)O)C(=O)O)NC(=O)[C@@H](NC(=O)[C@H](Cc1ccccc1)NC(=O)[C@H](CCC(=O)O)NC(=O)C(C)(C)NC(=O)[C@H](CCC(N)=O)NC(=O)[C@H](C)NC(=O)[C@H](CCCCNC(=O)[C@@H](N)CCCCNC(=O)[C@@H](N)CCCCNC(=O)CC[C@H](NC(=O)CCCCCCCCCCCCC(=O)O)C(=O)O)NC(=O)[C@H](CCCN)NC(=O)[C@H](CC(=O)O)NC(=O)[C@H](CC(C)C)NC(=O)[C@](C)(CC(C)C)NC(=O)[C@@H](NC(=O)[C@H](CO)NC(=O)[C@H](Cc1ccncc1)NC(=O)[C@H](CC(=O)O)NC(=O)[C@H](CO)NC(=O)[C@@H](NC(=O)[C@](C)(Cc1ccccc1F)NC(=O)[C@@H](NC(=O)CNC(=O)[C@H](CCC(=O)O)NC(=O)C(C)(C)NC(=O)[C@@H](N)Cc1ccc(O)cc1)[C@@H](C)O)[C@@H](C)O)[C@@H](C)CC)[C@@H](C)CC)C(=O)N[C@@H](CCC(=O)O)C(=O)NCC(=O)NCC(=O)N1CCC[C@H]1C(=O)N[C@@H](CO)C(=O)N[C@@H](CO)C(=O)NCC(=O)N[C@@H](C)C(=O)N1CCC[C@H]1C(=O)N1CCC[C@H]1C(=O)N1CCC[C@H]1C(=O)N[C@@H](CO)C(N)=O` [Example 162], for which the concentration for a half-maximal effect (EC50) at hGCGR (hGCGR EC50, nM (SEM, n)) is more than 9950 nM; at hGIPR (hGIPR EC50, nM (SEM, n)) it was 0.022 nM. Moreover, the Emax on hGIPR (HEK293, read-out: hGIPR Emax, % ± SEM, percent of maximal response to GIP(1-42)NH2) amounted to 89.7%.

With `CC[C@H](C)[C@H](NC(=O)[C@H](CC(C)C)NC(=O)[C@](C)(Cc1ccc(O)cc1)NC(=O)[C@@H](CCC(=O)O)NC(=O)[C@@H](NC(=O)[C@H](Cc1ccccc1)NC(=O)[C@H](CCC(=O)O)NC(=O)[C@](C)(Cc1ccccc1)NC(=O)[C@H](CCC(N)=O)NC(=O)[C@H](C)NC(=O)[C@H](CCCCNC(=O)COCCOCCNC(=O)COCCOCCNC(=O)CC[C@H](NC(=O)CCCCCCCCCCCCC(=O)O)C(=O)O)NC(=O)[C@H](CCCN)NC(=O)[C@H](CC(=O)O)NC(=O)[C@H](CC(C)C)NC(=O)[C@](C)(CC(C)C)NC(=O)[C@@H](NC(=O)[C@H](CO)NC(=O)[C@H](Cc1ccncc1)NC(=O)[C@H](CC(=O)O)NC(=O)[C@H](CO)NC(=O)[C@@H](NC(=O)[C@](C)(Cc1ccccc1F)NC(=O)[C@@H](NC(=O)CNC(=O)[C@H](CCC(=O)O)NC(=O)C(C)(C)NC(=O)[C@@H](N)Cc1ccc(O)cc1)[C@@H](C)O)[C@@H](C)O)[C@@H](C)CC)[C@@H](C)CC)C(=O)N[C@@H](CCC(=O)O)C(=O)NCC(=O)NCC(=O)N[C@@H](CCCCNC(=O)COCCOCCNC(=O)COCCOCCNC(=O)CC[C@H](NC(=O)CCCCCCCCCCCCC(=O)O)C(=O)O)C(=O)N[C@@H](CO)C(=O)N[C@@H](CO)C(=O)NCC(=O)N[C@@H](C)C(=O)N1CCC[C@H]1C(=O)N1CCC[C@H]1C(=O)N1CCC[C@H]1C(=O)N[C@@H](CO)C(N)=O` [Example 169], on hGCGR (setting [1]), the EC50 is more than 9950 nM. On hGIPR (setting [2]), the Emax is 96.1%.
